Reference: US9115092B2, “Substituted quinazoline and pyrido-pyrimidine derivatives” (Asana Biosciences, LLC, priority 2010, dated 2015)

Tests used:
pAkt(5473), BT474 cells = test: In-cell Western assay, pAkt(5473) in BT474 cells; type: cell-based; settings: Homo sapiens, BT-474, BT474 cell line, read-out: inhibition of pAkt(5473), IC50
pS6RP, BT474 cells = test: In-cell Western assay, pS6RP in BT474 cells; type: cell-based; settings: Homo sapiens, BT-474, BT474 cell line, read-out: inhibition of pS6RP, IC50
pS6RP, T47D cells = test: In-cell Western assay, pS6RP in T47D cells; type: cell-based; settings: Homo sapiens, T47D cell line, read-out: inhibition of pS6RP, IC50
PI3 kinase isoform γ = PI3 kinase isoform γ (Homo sapiens, UniProt P48736); test: PI3 Kinase TR-FRET assay, isoform γ; type: biochemical; settings: read-out: inhibition of PI3 kinase isoform γ, IC50
Chain of PI3 kinase isoform γ (P48736 whole entry, the tested form may be a part, canonical isoform): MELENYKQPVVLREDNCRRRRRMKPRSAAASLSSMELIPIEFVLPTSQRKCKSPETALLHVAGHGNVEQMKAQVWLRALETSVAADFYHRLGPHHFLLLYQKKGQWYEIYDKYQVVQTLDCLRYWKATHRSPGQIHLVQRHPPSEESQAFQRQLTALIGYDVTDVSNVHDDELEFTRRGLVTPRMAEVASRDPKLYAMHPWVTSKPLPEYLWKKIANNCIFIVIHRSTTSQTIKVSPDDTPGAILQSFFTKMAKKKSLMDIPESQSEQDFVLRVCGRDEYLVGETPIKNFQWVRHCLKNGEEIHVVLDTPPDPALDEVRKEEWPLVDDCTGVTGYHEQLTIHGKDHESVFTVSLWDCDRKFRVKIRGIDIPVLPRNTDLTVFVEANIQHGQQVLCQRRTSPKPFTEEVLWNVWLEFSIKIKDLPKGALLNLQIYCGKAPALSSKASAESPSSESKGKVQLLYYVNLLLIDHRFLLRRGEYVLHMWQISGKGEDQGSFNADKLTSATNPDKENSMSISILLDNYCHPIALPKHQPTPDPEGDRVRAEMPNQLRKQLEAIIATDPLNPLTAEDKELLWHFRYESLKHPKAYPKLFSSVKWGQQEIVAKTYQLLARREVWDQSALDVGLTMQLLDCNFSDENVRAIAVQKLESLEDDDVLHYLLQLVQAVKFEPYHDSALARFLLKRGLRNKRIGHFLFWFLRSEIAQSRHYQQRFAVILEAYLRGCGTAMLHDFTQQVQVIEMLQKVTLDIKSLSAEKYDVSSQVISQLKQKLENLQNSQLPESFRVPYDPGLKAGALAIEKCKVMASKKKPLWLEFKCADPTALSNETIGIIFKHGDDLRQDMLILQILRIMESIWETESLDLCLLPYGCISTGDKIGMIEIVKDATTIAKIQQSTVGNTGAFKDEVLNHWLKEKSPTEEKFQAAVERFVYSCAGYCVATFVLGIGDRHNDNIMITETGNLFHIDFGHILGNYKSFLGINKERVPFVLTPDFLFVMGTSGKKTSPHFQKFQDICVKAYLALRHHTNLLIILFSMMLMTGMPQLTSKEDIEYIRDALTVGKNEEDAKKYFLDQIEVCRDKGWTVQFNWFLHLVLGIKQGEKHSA
Method: The ability of compounds of the invention to inhibit PI3K activity was determined in a homogeneous TR-FRET assay using a PI3K assay kit (Millipore, USA; cat #33-016) according to manufacturer's instructions. PI3-Kinases (isoforms α, β, γ and δ) catalyze the phosphorylation of phosphatidylinositol, PIP2 to PIP3 in the presence of ATP and Mg^2+. The PIP3 product is detected by displacement of biotin-PIP3 from an energy transfer complex consisting of Europium labeled anti-GST monoclonal antibody, a GST-tagged PH domain, biotinylated PIP3 and Streptavidin-APC. Excitation of Europium in the complex results in an energy transfer to the APC and a fluorescence emission at 665 nm. The PIP3 product displaces biotin-PIP3 from the complex resulting in a loss of energy transfer and thus a decrease in signal.
To test for the ability of compounds to inhibit the activity of PI3Kα (wild-type), exemplary compounds of formula (I) were dissolved in DMSO and directly distributed into 384-well plates at a volume of 0.5 μL. […] Fluorescence was measured at 615 and 665 nm upon excitation at 340 nm in a Victor™ V5 fluorometer (Perkin Elmer, USA). The fluorescence emission ratio at 665 to 615 nm, proportional to the kinase activity, was plotted against the compound concentration to generate dose-response curves and IC50 values were determined using GraphPad Prism® 5 software. […]

CN(C)C(=O)c1ccc(NC(=O)Nc2ccc(-c3nc(N4CCOCC4)c4ccc(-c5cncnc5)cc4n3)cc2)cc1 [Example 1, N,N-Dimethyl-4-(3-{4-[4-morpholin-4-yl-7-pyrimidin-5-yl-quinazolin-2-yl)-phenyl]-ureido}-benzamide]
IC50 (pAkt(5473), BT474 cells): < 300 nM
IC50 (pS6RP, BT474 cells): < 50 nM
IC50 (pS6RP, T47D cells): < 50 nM

Cc1ccc(-c2ccc3c(N4CCOCC4)nc(-c4ccc(NC(=O)Nc5ccc(C(=O)N(C)C)cc5)cc4)nc3c2)o1 [Example 2, N,N-Dimethyl-4-(3-{4-[7-(5-methyl-furan-2-yl)-4-morpholin-4-yl-quinazolin-2-yl]-phenyl}-ureido)-benzamide]
IC50 (PI3 kinase isoform γ): < 1000 nM
